Measured values reported in US20050106582A1, “Compositions and methods utilizing stable reporter cell lines for detection of CREB-dependent signal transduction” (Stratagene, priority 1999, published 2005).
Read-outs that look alike come from different tables or passages of the source.

Assays:
[1] = system: GAL4-CREB; test: Luciferase reporter assay in RCLH-CREB stable cells treated with extracellular stimuli; format: cell-based, human; settings: 5 hours
[2] = system: GAL4-CREB; format: cell-based, human; settings: transient assays, 10 ug/ml; data not shown

Compound	stimulation of luciferase expression ([1]; in the presence of 100 uM forskolin)	effect on luciferase expression ([1]; 50 ug/ml)	stimulation of luciferase expression [2] [fold]
CCCCCCCCCCCCCC(=O)O[C@@H]1[C@@H](C)[C@@]2(O)[C@@H](C=C(CO)C[C@]3(O)C(=O)C(C)=C[C@@H]23)[C@@H]2C(C)(C)[C@]12OC(C)=O [PMA, phorbol-12-myristate-13-acetate]	approximately 70 fold	–	–
adenylate cyclase toxin [AC toxin]	–	approximately 7 fold	13
